We go through eight molecules from patent publication US20100311714A1, “1H-IMIDAZO[4,5-c]QUINOLINONE COMPOUNDS” (priority 2009, published 2010).

Data set [1] is described as follows: Parallel Artificial Membrane Permeability Assay (PAMPA) at pH 6.8. The data set is classed as physicochemical. Put shortly:
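PAMPA permeability measured at pH 6.8 following the Wohnsland and Faller method; value reported as log Pe.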

Data set [2] relates to PKB Ser473 phosphorylation in Rat1-myr-HA-p110 alpha cells. As to the kind of experiment: Reverse protein array, PKB Ser473 phosphorylation in Rat1-myr-HA-p110 alpha cells. In kind it is cell-based. Conditions: Rattus norvegicus, 0.5 h, 30 minutes compound incubation, read-out: p-PKB/IC50_alpha.
Data set [3] is described as follows: High-throughput equilibrium solubility at pH 6.8. The data set is classed as physicochemical. Conditions: pH 6.8, aqueous buffer, thermodynamic from solid; read-out: HT-Eq Sol/pH 6.8. An outline of the steps:
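Solubility was measured at pH 6.8 following the cited Zhou et al. (2007) procedure.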

In brackets after ≈: the same amount, converted by molar mass.

Regarding `Cc1cc(F)ncc1-n1c(=O)n(C)c2cnc3ccc(-c4cnc5c(ccn5C)c4)cc3c21` [Example 16.5, 1-(6-Fluoro-4-methyl-pyridin-3-yl)-3-methyl-8-(1-methyl-1H-pyrrolo[2,3-b]pyridin-5-yl)-1,3-dihydro-imidazo[4,5-c]quinolin-2-one], the “HT-Perm logPe pH6.8” value in data set [1] is −3.7. Besides, the IC50 in data set [2] worked out at 18.4 nM. For the same molecule, in data set [3], the solubility thermodynamic turned out to be 2 µg/mL (≈ 4.56 µM).

With `CCNc1cc(-c2ccc3ncc4c(c3c2)n(-c2ccc(OC)nc2Cl)c(=O)n4C)cnc1C` [Example 18.1, 1-(2-Chloro-6-methoxy-pyridin-3-yl)-8-(5-ethylamino-6-methyl-pyridin-3-yl)-3-methyl-1,3-dihydro-imidazo[4,5-c]quinolin-2-one], the “HT-Perm logPe pH6.8” value in data set [1] is given as −3.6. The IC50 in data set [2] is below 4.57 nM. For the same molecule, in data set [3], the solubility thermodynamic was 10 µg/mL (≈ 21.1 µM).

As for `COc1ccc(-n2c(=O)n(C)c3cnc4ccc(-c5cnc(N(C)C)nc5)cc4c32)c(Cl)n1` [Example 18.3, 1-(2-Chloro-6-methoxy-pyridin-3-yl)-8-(2-dimethylamino-pyrimidin-5-yl)-3-methyl-1,3-dihydro-imidazo[4,5-c]quinolin-2-one], the “HT-Perm logPe pH6.8” value in data set [1] is −3.5. Also, in data set [2], the IC50 worked out at 7.1 nM. Moreover, the solubility thermodynamic in data set [3] is 37 µg/mL (≈ 80.1 µM).

In the case of `CNc1cc(-c2ccc3ncc4c(c3c2)n(-c2ccc(N(C)C)nc2C)c(=O)n4C)cnc1C` [Example 19.2, 1-(6-Dimethylamino-2-methyl-pyridin-3-yl)-3-methyl-8-(6-methyl-5-methylamino-pyridin-3-yl)-1,3-dihydro-imidazo[4,5-c]quinolin-2-one], the “HT-Perm logPe pH6.8” value in data set [1] is −4.1. The IC50 in data set [2] was below 4.57 nM. In addition, the solubility thermodynamic in data set [3] is 34 µg/mL (≈ 75 µM).

Consider `CCOc1ccc(-c2ccc3ncc4c(c3c2)n(-c2ccc(N(C)C)nc2C)c(=O)n4C)cn1` [Example 19.3, 1-(6-Dimethylamino-2-methyl-pyridin-3-yl)-8-(6-ethoxy-pyridin-3-yl)-3-methyl-1,3-dihydro-imidazo[4,5-c]quinolin-2-one], for which the “HT-Perm logPe pH6.8” value in data set [1] is on record as −4.4. Further, the IC50 in data set [2] turned out to be 6.8 nM. Further, in data set [3], the solubility thermodynamic came out at 5 µg/mL (≈ 11 µM).

Turning to `COc1cc(-c2ccc3ncc4c(c3c2)n(-c2ccc(N(C)C)nc2C)c(=O)n4C)cnc1CO` [Example 19.4, 1-(6-Dimethylamino-2-methyl-pyridin-3-yl)-8-(6-hydroxymethyl-5-methoxy-pyridin-3-yl)-3-methyl-1,3-dihydro-imidazo[4,5-c]quinolin-2-one], the “HT-Perm logPe pH6.8” value in data set [1] is −4.1. Besides, the IC50 in data set [2] is 6.8 nM. Besides, in data set [3], the solubility thermodynamic was 110 µg/mL (≈ 234 µM).

With `Cc1nc(N(C)C)ccc1-n1c(=O)n(C)c2cnc3ccc(-c4cncc(N)c4)cc3c21` [Example 19.5, 8-(5-Amino-pyridin-3-yl)-1-(6-dimethylamino-2-methyl-pyridin-3-yl)-3-methyl-1,3-dihydro-imidazo[4,5-c]quinolin-2-one], the “HT-Perm logPe pH6.8” value in data set [1] is −5.2. Also, the IC50 in data set [2] was 6.9 nM. For the same molecule, in data set [3], the solubility thermodynamic stood at 10 µg/mL (≈ 23.5 µM).

Turning to `COCC(=O)Nc1ccc(-n2c(=O)n(C)c3cnc4ccc(-c5cncc(N)c5)cc4c32)c(C)n1` [Example 20.1, N-{5-[8-(5-Amino-pyridin-3-yl)-3-methyl-2-oxo-2,3-dihydro-imidazo[4,5-c]quinolin-1-yl]-6-methyl-pyridin-2-yl}-2-methoxy-acetamide], the “HT-Perm logPe pH6.8” value in data set [1] is −6.1. The IC50 in data set [2] worked out at 287 nM. Moreover, the solubility thermodynamic in data set [3] was 28 µg/mL (≈ 59.6 µM).
